The values that follow come from patent US9839642B2, “Beta-tetrazolyl-propionic acids as metallo-beta-lactamase inhibitors” (priority 2014, dated 2017).

As a reminder, the IC50 is the concentration that gives 50% inhibition.

One assay concerns the target IMP-1 (Serratia marcescens, UniProt P52699). Put plainly: Enzyme activity: determination of IC50, fluorescence assay with CCF2-FA substrate. It counts as biochemical. As to conditions: IMP-1 enzyme 2 pM, CCF2-FA 1.25 μM, 2 hours at 25° C.; read-out: IMP1 IC50. The method in brief: (§1)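 Enzyme at 1 pM (NDM-1), 2 pM (IMP-1) or 30 pM (VIM-1) was incubated with inhibitor (20 μM to 0.00063 μM) and 1.25 μM CCF2-FA in 100 mM KH2PO4 pH 7, 0.005% Tween-20, 10 μM ZnSO4 for 2 hours at 25° C. Fluorescence was read at ex 405/em 460 nm; IC50 from 4-parameter fit.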

The next assay addresses NDM-1 (Klebsiella pneumoniae, UniProt C7C422). The assay is described as above. The following applies: NDM-1 enzyme 1 pM, CCF2-FA 1.25 μM, 2 hours at 25° C.; read-out: NDM1 IC50. Format: biochemical. The method in brief:
as §1

The next assay has as its target VIM-1 (Pseudomonas aeruginosa, UniProt A0A0F7KYQ8). The assay is described as above. The following applies: VIM-1 enzyme 30 pM, CCF2-FA 1.25 μM, 2 hours at 25° C.; read-out: VIM1 IC50. It counts as biochemical. The method in brief:
as §1

Assay [1] has as its system Escherichia coli expressing NDM-1 (CLB30016). The assay is described as follows: Antibiotic potentiation activity: synergistic concentration (MITC95) with imipenem, growth by OD600. Format: cell-based. The following applies: E. coli CLB30016 (NDM-1), 95% inhibition of growth. The method in brief: (§2)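 Colonies from overnight agar plates (35 °C) were suspended in saline and diluted 1:100 into 1.1× CAMHB. Inhibitor (final 200 μM to 0.195 μM) was combined with imipenem at 1 or 4 μg/ml, incubated 22–24 h at 35 °C, and absorbance read; MITC95 is the lowest inhibitor concentration giving 95% growth inhibition.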

For assay [2], the system named is Klebsiella pneumoniae expressing VIM-1 (IHMA599644). The description is as above. Format: cell-based. As to conditions: K. pneumoniae IHMA599644 (VIM-1), 95% inhibition of growth. The method in brief: as §2
For assay [3], the system named is Serratia marcescens expressing IMP-1 (CL5741). The assay is described as above. Format: cell-based. As to conditions: S. marcescens CL5741 (IMP-1), 95% inhibition of growth. The method in brief: as §2

Chain of NDM-1 (C7C422 29-270, looked up, species assumed): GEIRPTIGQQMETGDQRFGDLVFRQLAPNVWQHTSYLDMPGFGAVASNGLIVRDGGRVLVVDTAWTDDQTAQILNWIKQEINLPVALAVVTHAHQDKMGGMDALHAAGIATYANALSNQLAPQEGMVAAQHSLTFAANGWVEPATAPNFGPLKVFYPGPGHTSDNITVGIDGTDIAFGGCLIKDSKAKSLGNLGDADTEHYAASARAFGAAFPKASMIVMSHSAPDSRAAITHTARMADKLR
Chain of IMP-1 (P52699 19-246, looked up, species assumed): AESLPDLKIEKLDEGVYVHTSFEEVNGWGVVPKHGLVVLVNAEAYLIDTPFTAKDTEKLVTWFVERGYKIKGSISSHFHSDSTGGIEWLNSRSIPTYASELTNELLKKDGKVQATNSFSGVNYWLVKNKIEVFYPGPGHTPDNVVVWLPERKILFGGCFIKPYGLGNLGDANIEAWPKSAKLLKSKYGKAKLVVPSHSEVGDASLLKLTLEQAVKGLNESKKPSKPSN

Turning to `O=C(O)[C@@H](CC(F)(F)F)[C@H](Cc1ccc(NCCO)nc1)c1nnn[nH]1` [Example 436, (S)-4,4,4-trifluoro-2-((S)-2-(6-((2-hydroxyethyl)amino)pyridin-3-yl)-1-(1H-tetrazol-5-yl)ethyl)butanoic acid], the IC50 is 8290 nM at IMP-1, 1050 nM at NDM-1 and 54 nM on VIM-1. Besides, the “NDM1 EC30016 MITC95” value in assay [1] was 2.344 µM. For the same compound, the “VIM1 KP599644 MITC95” value in assay [2] was found to be 25 µM. Also, the “IMP1 SM5741 MITC95” value in assay [3] was found to be 100 µM.
As for `CCC[C@H](C(=O)O)[C@H](Cc1ccc2c(c1)CNC2)c1nnn[nH]1` [Example 437, (S)-2-((S)-2-(isoindolin-5-yl)-1-(1H-tetrazol-5-yl)ethyl)pentanoic acid compound with 2,2,2-trifluoroacetic acid (1:1)], the figures for the concentration for half-maximal inhibition (IC50) at IMP-1, at NDM-1 and at VIM-1 were 11400 nM, 533 nM and 1.73 nM, respectively. Moreover, the “NDM1 EC30016 MITC95” value in assay [1] was 4.688 µM. The “VIM1 KP599644 MITC95” value in assay [2] worked out at 6.25 µM. Moreover, the “IMP1 SM5741 MITC95” value in assay [3] is 150 µM.
As to `CC(C)C[C@H](C(=O)O)[C@H](Cc1ccc(CCN2CCCCC2=O)c(F)c1)c1nn[nH]n1` [Example 438, (S)-2-((S)-2-(3-fluoro-4-(2-(2-oxopiperidin-1-yl)ethyl)phenyl)-1-(2H-tetrazol-5-yl)ethyl)-4-methylpentanoic acid], the IC50 on IMP-1 came to 4.84 nM; at NDM-1, 13.4 nM; on VIM-1, 1.57 nM. Further, the “NDM1 EC30016 MITC95” value in assay [1] was 25 µM. The “VIM1 KP599644 MITC95” value in assay [2] is 75 µM. Moreover, the “IMP1 SM5741 MITC95” value in assay [3] came to 1.172 µM.
With `CC(C)C[C@H](C(=O)O)[C@H](Cc1ccc(CN2CCC(O)C2)c(F)c1)c1nn[nH]n1.O=C(O)C(F)(F)F` (stereo partly drawn) [Example 439, 5-((2S,3S)-3-carboxy-1-(3-fluoro-4-((3-hydroxypyrrolidin-1-yl)methyl)phenyl)-5-methylhexan-2-yl)-2H-tetrazol-3-ium 2,2,2-trifluoroacetate], the IC50 on IMP-1 is 483 nM; at NDM-1 it was 225 nM; on VIM-1, 4.32 nM. For the same compound, the “NDM1 EC30016 MITC95” value in assay [1] amounted to 31.25 µM. For the same compound, the “VIM1 KP599644 MITC95” value in assay [2] came out at 37.5 µM. The “IMP1 SM5741 MITC95” value in assay [3] was determined as 37.5 µM.
As to `CC(C)C[C@H](C(=O)O)[C@H](Cc1ccc(CCCN)c(F)c1)c1nn[nH]n1.O=C(O)C(F)(F)F` [Example 440, 5-((2S,3S)-1-(4-(3-aminopropyl)-3-fluorophenyl)-3-carboxy-5-methylhexan-2-yl)-2H-tetrazol-3-ium 2,2,2-trifluoroacetate], the IC50 on IMP-1 was determined as 124 nM; at NDM-1, 37.5 nM; on VIM-1, 1.62 nM. Also, in assay [1], the “NDM1 EC30016 MITC95” value stood at 6.25 µM. In assay [2], the “VIM1 KP599644 MITC95” value was 12.5 µM. Also, the “IMP1 SM5741 MITC95” value in assay [3] was found to be 6.25 µM.
In the case of `CC(C)C[C@H](C(=O)O)[C@H](Cc1ccc(COCCN2CCNCC2)c(F)c1)c1nn[nH]n1.O=C(O)C(F)(F)F` [Example 441, 5-((2S,3S)-3-carboxy-1-(3-fluoro-4-((2-(piperazin-1-yl)ethoxy)methyl)phenyl)-5-methylhexan-2-yl)-4422H-tetrazol-3-ium 2,2,2-trifluoroacetate], the IC50 at IMP-1 came out at 214 nM; at NDM-1, 113 nM; on VIM-1 it was 19.7 nM. In addition, in assay [1], the “NDM1 EC30016 MITC95” value is 25 µM. The “VIM1 KP599644 MITC95” value in assay [2] was 50 µM. For the same compound, in assay [3], the “IMP1 SM5741 MITC95” value is 18.75 µM.
In the case of `CC(C)C[C@H](C(=O)O)[C@H](Cc1ccc(COCC2CCNCC2)c(F)c1)c1nn[nH]n1.O=C(O)C(F)(F)F` [Example 442, 5-((2S,3S)-3-carboxy-1-(3-fluoro-4-((piperidin-4-ylmethoxy)methyl)phenyl)-5-methylhexan-2-yl)-2H-tetrazol-3-ium 2,2,2-trifluoroacetate], the concentration for half-maximal inhibition (IC50) stood at 110 nM at IMP-1, 74.7 nM on NDM-1 and 8.73 nM at VIM-1. Moreover, the “NDM1 EC30016 MITC95” value in assay [1] amounted to 12.5 µM. The “VIM1 KP599644 MITC95” value in assay [2] was determined as 25 µM. In addition, in assay [3], the “IMP1 SM5741 MITC95” value came out at 6.25 µM.
Take `CC(C)C[C@H](C(=O)O)[C@H](Cc1ccc(CN(C)C)c(F)c1)c1nn[nH]n1.O=C(O)C(F)(F)F` [Example 443, 1-(4-((2S,3S)-3-carboxy-5-methyl-2-(2H-tetrazol-5-yl)hexyl)-2-fluorophenyl)-N,N-dimethylmethanaminium 2,2,2-trifluoroacetate]: the IC50 turned out to be 1060 nM at IMP-1, 298 nM on NDM-1 and 4.29 nM on VIM-1. Further, in assay [1], the “NDM1 EC30016 MITC95” value is 12.5 µM. In addition, in assay [2], the “VIM1 KP599644 MITC95” value is 25 µM. Besides, the “IMP1 SM5741 MITC95” value in assay [3] came to 37.5 µM.
In the case of `CC(C)C[C@H](C(=O)O)[C@H](Cc1ccc(CN2CCC(N)CC2)c(F)c1)c1nn[nH]n1.O=C(O)C(F)(F)F` [Example 444, 1-(4-((2S,3S)-3-carboxy-5-methyl-2-(2H-tetrazol-5-yl)hexyl)-2-fluorobenzyl)piperidin-4-aminium 2,2,2-trifluoroacetate], the IC50 was 216 nM at IMP-1, 82.9 nM at NDM-1 and 76.5 nM at VIM-1. The “NDM1 EC30016 MITC95” value in assay [1] was 9.375 µM. Also, the “VIM1 KP599644 MITC95” value in assay [2] turned out to be 25 µM. Moreover, in assay [3], the “IMP1 SM5741 MITC95” value is 12.5 µM.
Regarding `CC(C)C[C@H](C(=O)O)[C@H](Cc1ccc(CCN)c(F)c1)c1nn[nH]n1.O=C(O)C(F)(F)F` [Example 445, 2-(4-((2S,3S)-3-carboxy-5-methyl-2-(2H-tetrazol-5-yl)hexyl)-2-fluorophenyl)ethanaminium 2,2,2-trifluoroacetate], the concentration for half-maximal inhibition (IC50) on IMP-1 turned out to be 693 nM; on NDM-1, 281 nM; on VIM-1, 1.98 nM. The “NDM1 EC30016 MITC95” value in assay [1] turned out to be 9.375 µM. Moreover, the “VIM1 KP599644 MITC95” value in assay [2] came out at 12.5 µM. For the same compound, the “IMP1 SM5741 MITC95” value in assay [3] stood at 25 µM.
Regarding `CC(C)C[C@H](C(=O)O)[C@H](Cc1ccc(CN2CCNCC2)c(F)c1)c1nn[nH]n1.O=C(O)C(F)(F)F` [Example 446, 4-(4-((2S,3S)-3-carboxy-5-methyl-2-(2H-tetrazol-5-yl)hexyl)-2-fluorobenzyl)piperazin-1-ium 2,2,2-trifluoroacetate], the 50% inhibitory concentration (IC50) at IMP-1 is 380 nM; on NDM-1, 170 nM; on VIM-1, 6.94 nM. For the same compound, the “NDM1 EC30016 MITC95” value in assay [1] amounted to 12.5 µM. The “VIM1 KP599644 MITC95” value in assay [2] was 25 µM. The “IMP1 SM5741 MITC95” value in assay [3] came to 18.75 µM.
Consider `CC(C)C[C@H](C(=O)O)[C@H](Cc1ccc(COC2CCNCC2)c(F)c1)c1nn[nH]n1.O=C(O)C(F)(F)F` [Example 447, 4-((4-((2S,3S)-3-carboxy-5-methyl-2-(2H-tetrazol-5-yl)hexyl)-2-fluorobenzyl)oxy)piperidin-1-ium 2,2,2-trifluoroacetate], for which the IC50 on IMP-1 is 163 nM; on NDM-1, 104 nM; at VIM-1 it was 6.35 nM. Moreover, in assay [1], the “NDM1 EC30016 MITC95” value worked out at 9.375 µM. Besides, the “VIM1 KP599644 MITC95” value in assay [2] was determined as 25 µM. In addition, the “IMP1 SM5741 MITC95” value in assay [3] worked out at 6.25 µM.
For the compound `CCC[C@H](C(=O)O)[C@H](Cc1ccccc1C1=CCC(NC)CC1)c1nn[nH]n1` (stereo partly drawn) [Example 448, 2′-((2S,3S)-3-carboxy-2-(2H-tetrazol-5-yl)hexyl)-N-methyl-2,3,4,5-tetrahydro-[1,1′-biphenyl]-4-aminium 2,2,2-trifluoroacetate], the values for the IC50 at IMP-1, on NDM-1 and on VIM-1 were 7790 nM, 92.5 nM and 48.6 nM, respectively. Besides, the “NDM1 EC30016 MITC95” value in assay [1] came to 12.5 µM. The “VIM1 KP599644 MITC95” value in assay [2] was found to be 37.5 µM. Further, the “IMP1 SM5741 MITC95” value in assay [3] is 200 µM.
